Laboratory results published in publication PMC8041284, “Tunable Methacrylamides for Covalent Ligand Directed Release Chemistry” (Journal of the American Chemical Society, 2021).

molecular target: BTK (Homo sapiens, UniProt Q06187); assay: biochemical; conditions: read-out: BTK inhibition (%)
Sequence (Q06187 402-655 limits assumed): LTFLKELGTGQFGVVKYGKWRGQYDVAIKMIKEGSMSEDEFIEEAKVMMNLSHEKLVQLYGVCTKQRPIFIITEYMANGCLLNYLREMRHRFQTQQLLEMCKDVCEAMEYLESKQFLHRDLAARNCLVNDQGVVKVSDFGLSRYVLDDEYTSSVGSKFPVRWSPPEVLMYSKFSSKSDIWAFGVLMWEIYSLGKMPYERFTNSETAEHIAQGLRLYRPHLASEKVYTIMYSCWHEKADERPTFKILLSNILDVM

| Structure (SMILES) | inhibition at 10 µM [%] |
| --- | --- |
| O=C1C([C@@H]2O[C@H](CO)[C@@H](O)[C@H](O)[C@H]2O)=C(O)/C(=C(O)/C=C/c2ccc(O)cc2)C(=O)C1(O)[C@@H]1O[C@H](CO)[C@@H](O)[C@H](O)[C@H]1O (some centres unmarked) [PCM-0216360] | 23.9 |

same assay, conditions: read-out: BTK inhibition (%), 0.75 uM BTK, […] probe 3l, 15 min preincubation

| Structure (SMILES) | inhibition at 10 µM [%] |
| --- | --- |
| O=C1CC[C@@]2(O)[C@H]3Cc4ccc(O)c5c4[C@@]2(CCN3CC2CC2)[C@H]1O5 [PCM-0085829] | -24.1 |
| CCC(=O)OCC(=O)[C@@]1(OC(=O)CC)[C@@H](C)C[C@H]2[C@@H]3CCC4=CC(=O)C=C[C@]4(C)[C@@]3(F)[C@@H](O)C[C@@]21C [PCM-0095138] | -9.3 |
| O=C(c1ccc(F)cc1)N1CCC[C@H](c2nc(-c3ccc(F)cc3)no2)C1 [PCM-0095385] | -13.2 |
| C[C@H](C[C@H](O)[C@@H](O)C(C)(C)O)C1=C2C[C@H](O)[C@H]3[C@@]4(C)CCC(=O)C(C)(C)[C@@H]4CC[C@]3(C)[C@@]2(C)CC1 [PCM-0216519] | -29.3 |
| Cc1cccc(-c2[nH]c(C(C)(C)C)nc2-c2ccc3c(c2)OCO3)n1 [PCM-0095234] | 9.3 |
| CCn1c(=O)c(-c2ccc(Cl)cc2Cl)cc2cnc(Nc3ccc(N4CCNCC4)c(F)c3)nc21 [PCM-0215684] | 87.6 |
| CC(=O)c1ccccc1 [PCM-0216190] | 3.1 |
| CCC(C)SSc1ncc[nH]1 (centres unmarked) [PCM-0215586] | 2.3 |
| OC[C@@H](O)[C@H](O)[C@H](O)[C@@H](O)CO [PCM-0215034] | -10.1 |
| O[C@@H]1[C@H](O)[C@@H](O)CO[C@H]1O [PCM-0215084] | 0.8 |
| CC(C)CN(C[C@@H](O)[C@H](Cc1ccccc1)NC(=O)O[C@H]1CCOC1)S(=O)(=O)c1ccc(N)cc1 [PCM-0214738] | -41.2 |
| CO/N=C(\C(=O)N[C@@H]1C(=O)N2C(C(=O)[O-])=C(C[n+]3ccn4ncccc43)CS[C@H]12)c1nsc(N)n1 [PCM-0216591] | 10.8 |
| O=c1cc(-c2ccccc2)oc2cc(O)cc(O)c12 [PCM-0088446] | 34.2 |
| Nc1ccc(Cl)cc1C(=O)C(F)(F)F [PCM-0216158] | 23.2 |
| COc1ccc(-c2cc(=O)c3c(O)cc(O[C@@H]4O[C@H](CO[C@@H]5O[C@@H](C)[C@H](O)[C@@H](O)[C@H]5O)[C@@H](O)[C@H](O)[C@H]4O)cc3o2)cc1 [PCM-0216526] | 14.7 |
| C=C1C[C@@]23CC[C@H]4[C@@](C)(CCC[C@@]4(C)C(=O)O[C@@H]4O[C@H](CO)[C@@H](O)[C@H](O)[C@H]4O)[C@@H]2CC[C@]1(O[C@@H]1O[C@H](CO)[C@@H](O)[C@H](O[C@@H]2O[C@H](CO)[C@@H](O)[C@H](O)[C@H]2O)[C@H]1O[C@@H]1O[C@H](CO)[C@@H](O)[C@H](O)[C@H]1O)C3 [PCM-0215017] | 0.8 |
| O=C(O)c1ccc(C=C2SC(=S)N(c3cccc(C(F)(F)F)c3)C2=O)cc1 [PCM-0095759] | 54.1 |
| CC1(C)S[C@@H]2[C@H](NC(=O)[C@H](C(=O)O)c3ccsc3)C(=O)N2[C@H]1C(=O)O [PCM-0214724] | -1.6 |
| Cc1cc(C)c(S(=O)(=O)n2cc(C)cc2C)c(C)c1 [PCM-0215336] | -13.1 |
| CO/N=C(\C(=O)N[C@@H]1C(=O)N2C(C(=O)O)=C(C[N+]3(C)CCCC3)CS[C@H]12)c1csc(N)n1 [PCM-0214905] | -10.1 |
| Cc1ccccc1C(=O)Nc1ccc(C(=O)N2CCCC(O)c3cc(Cl)ccc32)c(C)c1 (centres unmarked) [PCM-0095415] | 4.7 |
| Cc1coc2c1C(=O)C(=O)c1c-2ccc2c1CCCC2(C)C [PCM-0091329] | 16.3 |

| Structure (SMILES) | inhibition at 10 µM [%] |
| --- | --- |
| C[C@@H]1CC(=O)Nc2cccc(-c3ccc4c(c3)c(-c3cnn(C)c3)nn4C)c2N1 [PCM-0215716] | 1.5 |
| C[C@@H]1COCCN1c1cc(C2([S@](C)(=N)=O)CC2)nc(-c2ccnc3[nH]ccc23)n1 [PCM-0215530] | -4.1 |
| O=C(/C=C/c1ccccc1)NC(NC(=S)Nc1ccc(Cl)cc1)C(Cl)(Cl)Cl (centres unmarked) [PCM-0095765] | 34 |
| Cn1cc(-c2cc(Oc3cc(F)c(NC(=O)C4(C(=O)Nc5ccccc5)CC4)cc3F)ccn2)cn1 [PCM-0216116] | 88.8 |
| C=C1C2CCC(C2)C1(C)C (centres unmarked) [PCM-0216213] | 18.5 |
| CCc1c2c(nc3ccc(OC(=O)N4CCC(N5CCCCC5)CC4)cc13)-c1cc3c(c(=O)n1C2)COC(=O)[C@]3(O)CC [PCM-0086493] | 6.9 |
| C#Cc1cccc(Nc2ncnc3cc(OC)c(OCCCCCCC(=O)NO)cc23)c1 [PCM-0095078] | 87.6 |
| Nc1ccn([C@H]2CC[C@@H](CO)O2)c(=O)n1 [PCM-0065156] | -22.6 |
| COc1ccc(-c2ccc3cc(C(=O)O)ccc3c2)cc1C12CC3CC(CC(C3)C1)C2 [PCM-0090276] | 29 |
| Cc1[nH]c2ccccc2c1CCNC(=O)c1cccs1 [PCM-0095767] | -6.9 |
| Cc1cc(NC(=O)c2cccc(NC(=O)/C=C/CN(C)C)c2)ccc1Nc1nccc(-c2cccnc2)n1 [PCM-0095741] | 9.7 |
| CCNC(=O)Nc1ccc(-c2nc3c(c(N4CCOC[C@@H]4C)n2)CCN(C2COC2)C3)cc1 [PCM-0095629] | 3.4 |
| CO/N=C(\C(=O)N[C@@H]1C(=O)N2C(C(=O)O)=CCS[C@H]12)c1csc(N)n1 [PCM-0215091] | 7.8 |
| O=C(O)C(Cc1c[nH]c2ccccc12)N1C(=O)c2ccccc2C1=O (centres unmarked) [PCM-0095449] | 7.6 |
| COc1cc2c[n+](C)c3c4cc5c(cc4ccc3c2cc1OC)OCO5 [PCM-0216452] | 27.8 |
| CC(C)n1c(/C=C/[C@H](O)C[C@H](O)CC(=O)O)c(-c2ccc(F)cc2)c2ccccc21 [PCM-0090402] | 15.9 |
| O=C(O)CNC(=O)c1ccccc1 [PCM-0216220] | 20.8 |
| O=C(O)CCC(=O)Nc1ccc(Br)cn1 [PCM-0215427] | -3.4 |
| COc1cc(C(C)=O)ccc1OCCCN1CCC(c2noc3cc(F)ccc23)CC1 [PCM-0095163] | -16.3 |
| NC(=O)c1cc(F)cc2c1C(=O)N(C1CCN(C3CCC(F)(F)CC3)CC1)C2 [PCM-0215809] | 4.6 |
| COc1cc2c(cc1OC)CN(CCc1ccc(NC(=O)c3cc(OC)c(OC)cc3NC(=O)c3cnc4ccccc4c3)cc1)CC2 [PCM-0095616] | 4.6 |
| COc1ccc(C(=O)O)c(O)c1 [PCM-0215974] | 2.3 |

| Structure (SMILES) | inhibition at 10 µM [%] |
| --- | --- |
| N=C(N)c1ccc2cc(OC(=O)c3ccc(N=C(N)N)cc3)ccc2c1 [PCM-0095060] | -1.6 |
| C[C@@H](O)[C@H]1C(=O)N2C(C(=O)O)=C(S[C@@H]3CN[C@H](C(=O)N(C)C)C3)[C@H](C)[C@H]12 [PCM-0095036] | -14.8 |
| CN[C@@H]1[C@@H](O)[C@@H](O[C@@H]2[C@@H](O)[C@H](O[C@H]3OC(CN)=CC[C@H]3N)[C@@H](N)C[C@H]2N)OC[C@]1(C)O [PCM-0215656] | 28.9 |
| C=CC(=O)Nc1cc(Nc2nccc(-n3cc(CN(C)C)c(-c4ccccc4)n3)n2)c(OC)cc1N1CCOCC1 [PCM-0216259] | 11.1 |
| COC(=O)[C@H]1[C@H]2C[C@@H]3c4[nH]c5cc(OC)ccc5c4CCN3C[C@H]2C[C@@H](OC(=O)c2cc(OC)c(OC)c(OC)c2)[C@@H]1OC [PCM-0214638] | 35 |
| C[Si](C)(C)N=C(O[Si](C)(C)C)C(F)(F)F [PCM-0216107] | -6.9 |
| CC(C)=CCc1cc2c(cc1O)O[C@H](c1ccc(O)cc1)CC2=O [PCM-0216180] | 54.1 |
| CC(C)=CCC[C@](C)(O[C@@H]1O[C@H](CO[C@@H]2O[C@@H](CO)[C@H](O)[C@H]2O)[C@@H](O)[C@H](O)[C@H]1O)[C@H]1CC[C@]2(C)[C@@H]1[C@H](O)C[C@@H]1[C@@]3(C)CC[C@H](O[C@@H]4O[C@H](CO)[C@@H](O)[C@H](O)[C@H]4O[C@@H]4O[C@H](CO)[C@@H](O)[C@H](O)[C@H]4O)C(C)(C)[C@@H]3CC[C@]12C [PCM-0216509] | -10 |
| CO[C@H]1[C@@H](O)[C@H](O[C@@H]2[C@@H](C)O[C@@H](O[C@H]3CC[C@@]4(C)[C@@H](CC[C@@]56O[C@@]57CC[C@@H](C(C)=O)[C@@]7(C)[C@H](OC(C)=O)[C@@H](OC(=O)c5ccccc5)[C@H]46)C3)C[C@H]2OC)O[C@H](C)[C@H]1O [PCM-0216600] | -12.4 |
| COc1ccc2c(Oc3ccc(NC(=O)c4c(C)n(CC(C)(C)O)n(-c5ccccc5)c4=O)nc3)ccnc2c1 [PCM-0095484] | 12.4 |
| Cc1[nH]c(/C=C2\C(=O)Nc3ccc(S(=O)(=O)N(C)c4cccc(Cl)c4)cc32)c(C)c1C(=O)N1CCN(C)CC1 [PCM-0095046] | 6.9 |
| O=C(Nc1cnn2ccc(N3CCC[C@@H]3c3cc(F)ccc3F)nc12)N1CC[C@H](O)C1 [PCM-0215701] | -9 |
| N[C@@H]1CONC1=O [PCM-0064462] | -11.9 |
| c1ccc2c(c1)CCCC2C1=NCCN1 (centres unmarked) [PCM-0064782] | -11 |
| C[C@H]1[C@H](OC(=O)CCC(=O)O)O[C@@H]2O[C@@]3(C)CC[C@H]4[C@H](C)CC[C@@H]1[C@@]24OO3 [PCM-0214643] | 6.2 |
| CCCCCCCCC[C@H](O)CC(=O)CCc1ccc(O)c(OC)c1 [PCM-0216384] | -10.8 |
| C=C(CCC=C(C)C)[C@H]1CC[C@]2(C)[C@@H]1[C@H](O)C[C@@H]1[C@@]3(C)CC[C@H](O[C@@H]4O[C@H](CO)[C@@H](O)[C@H](O)[C@H]4O[C@@H]4O[C@H](CO)[C@@H](O)[C@H](O)[C@H]4O)C(C)(C)[C@@H]3CC[C@]12C [PCM-0216466] | 6.2 |
| CN1CCN(Cc2ccc(Nc3ncc(Cl)c(Nc4ccccc4S(=O)(=O)N(C)C)n3)cc2)CC1 [PCM-0215510] | 67.2 |
| Cc1c(Cc2ccc3ccccc3n2)c2cc(F)ccc2n1CC(=O)O [PCM-0214780] | 8.6 |
| CN(C)CC(=O)Nc1ccc2[nH]c(=O)c3ccccc3c2c1 [PCM-0213810] | -7.7 |
